Patent EP0400227A1, “Natriuretic peptides” (Acticor, Inc., priority 1989, dated 1990)
Ends that are not written are not given here.

Test system: rats
Experiment: Natriuretic and diuretic effect of intravenous bolus injection in anesthetized rats
Assay type: in vivo, male Sprague-Dawley or Long-Evans rats
Settings: 30 to 60 minutes after minus 30 to 0 minutes before injection, mean ± SEM
Procedure: Diuretic and natriuretic activity of the peptides of this invention is assayed in male rats of the Sprague-Dawley or Long-Evans strains. Peptide or vehicle (for control purposes) is administered by intravenous bolus injection or by continuous infusion into one […] of animals anesthetized for the duration of the experiment, or by intramuscular or subcutaneous injection into animals only briefly anesthetized with ether and subsequently conscious and freely moving until completion of the experiment. Timed urine samples are collected for determination of volume and measurement of sodium and potassium concentration by flame photometry. Details of each method are given in Examples II to IV below.
The natriuretic and diuretic effect of intravenous bolus injection of peptides F15R, G13R and E19R was tested in male Sprague-Dawley or Long-Evans rats weighing 300-400 g. The animals were given Inactin®, 120 mg per kg body weight i.p. under light ether anesthesia. Following placement of a tracheal cannula, the right femoral vein was catheterized for infusion of 5% bovine serum albumin at a dose of 0.4% of body weight and at a rate of 6.0 ml/hour. Subsequently, normal saline was infused for the duration of the experiment at a rate of 2.0 ml/hour. The bladder was exposed through an abdominal incision and catheterized for urine collection. Serial 15-minute urine collections in preweighed vials were begun after a recovery period of 45 minutes. After collection of four control samples, the peptide in 0.1 ml of vehicle was injected into the femoral vein over a period of 1 minute and 6 to 10 further urine samples were collected. Urine volume was determined by weighing and urine sodium and potassium were assayed by flame photometry. All peptides produced natriuresis and diuresis reaching peak levels usually between 30 and 60 minutes after injection. The difference between urine volume and sodium excretion observed from 30 to 60 minutes after and 30 to 0 minutes before peptide administration was calculated for each rat as a measure of activity.

[1] = i.v. 0.100 nmol (0.10 nmol for G13R)

Sequence	Change in Sodium Excretion (i.v. 0.025 nmol) [µeq/30 minutes]	Change in Urine Volume (i.v. 0.025 nmol) [µl/30 minutes]	Change in Sodium Excretion [1] [µeq/30 minutes]	Change in Urine Volume [1] [µl/30 minutes]	Change in Sodium Excretion (i.v. 1.00 nmol) [µeq/30 minutes]	Change in Urine Volume (i.v. 1.00 nmol) [µl/30 minutes]
ETPMFPGNGDEQPLTENP [E19R]	6.50 ± 3.60	89.0 ± 43.6	12.07 ± 5.08	104.2 ± 58.0	–	–
GNGDEQPLTPNPR [G13R]	–	–	8.39 ± 4.41	80.0 ± 29.2	12.48 ± 6.22	62.0 ± 17.2
